# pIC50: −log10 of the molar value.
# Tests used:
# mice [1] = test: Forced swimming test; assay type: in vivo, mouse; conditions: mouse FST, 15 mg kg^−1 s.c., single dose 26 min before test, last 4 min of 6 min, mean ± SEM of 10 mice; vehicle 193.7 ± 8.9
# Protocol: (§1) To execute the tests, mice were divided into groups, each of which consisted of 10 animals. The tests were performed after a single p.o. administration of compound 18 at different dosages (10 mg Kg^−1 and 30 mg Kg^−1). Amitriptyline (15 mg Kg^−1) was used as the reference drug. Compounds were acutely administrated 26 min before the beginning of the experiment. In the FST (Table 4), the duration of immobility was recorded during the last 4 min of the 6 min test.
# (§2) Male CD-1 albino mice (22–25 g; Envigo, Varese, Italy) were housed in CeSAL (Centro Stabulazione Animali da Laboratorio, University of Florence, Florence, Italy) and used at least one week after their arrival. Animals were housed in 26 cm × 41 cm cages (12 mice each) and fed with a standard laboratory diet and tap water ad libitum. They were kept at 23 ± 1 °C with a 12 h light/dark cycle, light at 7 a.m. Compound 18 was administered per o.s. whereas amitriptyline was by a s.c. route following the most widely used approach reported in the literature.
# Mice were individually placed into glass cylinders (height: 25 cm, diameter: 10 cm) containing 12 cm of water maintained at 22–23 °C for 6 min. Immobility was considered the animal floated in the water, in an upright position, and made only small movements to keep its head above water. The immobility time was recorded during the last 4-min of the 6-min test. A decrease in the duration of immobility is indicative of an antidepressant-like effect.
# (§3) Behavioral tests were performed by visual observation by researchers blinded to the treatments. Results were expressed as means ± SEM, variance was analyzed by ANOVA. A Bonferroni’s significant difference procedure was used as post-hoc comparison. p values of less than 0.05 and 0.01 were considered significant. Data were analyzed using the “Origin 8.1” software.
# mice [2] = test: Sucrose preference test, LPS-induced anhedonia; assay type: in vivo, mouse; conditions: LPS 1.25 mg kg^−1 i.p. mice, 15 mg kg^−1 s.c. same protocol
# Protocol: Anhedonia, or the inability to experience pleasure, is a common symptom of depression. The mood regulatory role of 18 was studied against anhedonia evaluated in the sucrose preference test in animals treated with lipopolysaccharide (LPS), a model of neuroinflammation-induced depressive-like syndrome. Compound 18 (10 mg kg^−1 and 30 mg kg^−1) was daily p.o administered for five consecutive days. Twenty-four hours after the last 18 treatment, LPS 1.25 mg kg^−1 was intraperitoneally injected. Immediately after LPS injection, mice were placed in cages equipped with two bottles: a bottle of 2% sucrose solution and a bottle of water (unsweetened tap water). The consumption of the 2% sucrose solution was evaluated 6 h and 24 h after LPS injection. Amitriptyline (15 mg kg^−1) was used as the reference drug administered following the same protocol.
# as §2
# Lipopolysaccharide (LPS) from Escherichia coli was purchased from Sigma-Aldrich, (Milan, Italy) freshly dissolved in sterile saline, and injected intraperitoneally (i.p.) at the dose of 1.25 mg kg^−1 [49] after five consecutive days of treatment with compound 18, 1 h after the last administration of the compound. Behavioral tests were performed before 6 h and 24 h after LPS administration.
# Mice were placed in cages equipped with a couple of bottles, one containing 2% sucrose solution, the second with water (unsweetened tap water). The consumption of the 2% sucrose solution was evaluated 6 h and 24 h after the beginning of the experiment. The preference index was calculated according to the following formula: preference index = volume consumed sucrose solution/(volume consumed sucrose solution + volume consumed water).
# as §3
# mice [3] = test: Tail suspension test; assay type: in vivo; conditions: mouse TST, 15 mg kg^−1 s.c., single dose, mean ± SEM of 10 mice; vehicle 99.0 ± 6.8
# Protocol: as §1
# A decrease in the duration of immobility is indicative of an antidepressant-like effect. […] Accordingly, a similar activity was shown in the tail suspension test (Table 5) where the immobility time was measured in the first 2 min, when animals react to the inescapable stress, and in the last 4 min of the test, when the behavioral despair is established. Immobility was defined as the absence of any limb or body movements, except those caused by respiration. A reduction in the duration of the immobility time is indicative of an antidepressant-like effect.
# as §2, with “Compound 18 was administered per o.s. whereas amitriptyline was by a s.c. route following the most widely used approach reported in the literature.” left out
# A piece of tape was adhered to the upper middle of the tail of each animal, creating a flap with the overlap of tape. […] The duration of the test was 6 min and the immobility time was measured in the first 2 min, when animals react to the inescapable stress, and in the last 4 min of the test, when the behavioral despair is established. […]
# Behavioral tests were performed by visual observation by researchers blinded to the treatments. Results were expressed as means ± SEM, variance was analyzed by ANOVA. […] Data were analyzed using the “Origin 8.1” software.
# hA2B AR = molecular target: T1, hA2B AR (Homo sapiens, UniProt P29275); set-up: method as in PMID 30638876; conditions: inhibition of NECA-stimulated adenylyl cyclase activity, CHO cells; ref [34]; cited from earlier work
# T1 construct: expressed in transfected cells; host or cells: CHO cells
# T1 sequence (P29275 1-332): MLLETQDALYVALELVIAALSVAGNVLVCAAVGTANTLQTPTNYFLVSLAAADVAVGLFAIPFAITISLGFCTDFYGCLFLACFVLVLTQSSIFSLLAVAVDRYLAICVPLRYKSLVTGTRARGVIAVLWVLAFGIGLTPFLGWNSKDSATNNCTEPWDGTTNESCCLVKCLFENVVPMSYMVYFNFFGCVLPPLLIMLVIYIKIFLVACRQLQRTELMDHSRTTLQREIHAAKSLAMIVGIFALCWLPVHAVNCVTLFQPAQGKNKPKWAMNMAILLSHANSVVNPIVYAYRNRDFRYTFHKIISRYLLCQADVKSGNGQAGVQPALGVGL
SMILES,Immobility Time (mice [1]),"Sucrose Preference (%), 6 h (mice [2]; 6 h after LPS, vehicle + LPS 42.3 ± 3.1)","Sucrose Preference (%), 24 h (mice [2]; 24 h after LPS, vehicle + LPS 38.0 ± 5.6)",Immobility Time (mice [3]),pIC50 (hA2B AR)
"CN(C)CCC=C1c2ccccc2CCc2ccccc21 [amitriptyline, reference compound]",149.4 ± 4.6 s,69.1 ± 4.8 %,70.3 ± 6.4 %,61.6 ± 8.4 s,–
Nc1nc(-c2ccccc2)nc2sc(-c3ccccc3)nc12 [compound 20],–,–,–,–,< 4.52
